The subject of series [1] is akinesia of mice during forced swimming. The series can be described thus: mill wheel test (forced swimming), psychoanaleptic activity. The series is classed as in vivo. Here is the method: This test was conducted in the following manner according to a method described in S. Nomura et al., Eur. J. Pharmacol., 83, 171 - 175 (1982).
Activities of each drug on the akinesia of mice during forced swimming were examined by a mill wheel test. Now the meaning of this test will be described. The akinesia observed during forced swimming of mice may be regarded as emotional disturbance since the animals resign escaping from the narrow environment (device) as the result of learning. It has been known that this akinesia can be shortened by drugs having psychoanaleptic effects such as antidepressants or MAO inhibitors. Namely, each drug was orally administered to a mouse. 40 minutes after the administration, the mouse was introduced into a water tank provided with a mill wheel and contained water at 25 °C. Then, the number of rotations of the wheel was counted throughout the observation period (6 minutes). However, P-CC2 was subcutaneously administered to avoid decomposition in digestive organ and the examination was conducted for 15 minutes thereafter (see Margaret M. Schweri, Joseph V. Martin, Wallace B. Mendelson, James E. Barrett, Steven M. Paul and Phil Skolnick, Life Science, 1505-1510, 33 (1983) and P. Skolnick, M. M. Schweri, S. M. Paul, J. V. Martin and W. B. Mendelson, Life Science, 2439-2445, 32 (1983)).

The subject of series [2] is male Wister rats. The series can be described thus: water lick conflict test, learning improvement activity (latent time). The series is classed as in vivo. As to conditions: time until first drinking water, average of no-drug rats defined as 100 (n = 5). From the text:
(§1) The antianxiety activity and learning improvement activity of the compounds of the present invention were examined by using male Wister rats aged 6 weeks by a water lick conflict test by reference to a method described by Vogel J. R., Beer B. and Clody D. E. described in Psvcho^pharmacolo^qia, 1 - 7, 21 (1971).
(§2) In this test, rats having abstained from water were used and an electric shock was applied to the animals every time they drank water to bring the rats into an anxious state. Thus the activity of medicaments to the rats were determined.
This test was conducted simultaneously with the measurement of the antianxiety activity (2) and aims at measuring the latent time when the rats abstinence from water first began to drink water.
A longer latent time means the higher learning improvement activity.

In series [3] the test system is male Wister rats. The series can be described thus: water lick conflict test, antianxiety activity (shocked number). The series is classed as in vivo. As to conditions: electric shocks within 5 minutes, no-drug rat defined as 100 (n = 5).
From the text: as §1, §2
Rats, having abstained from water for 24 hours prior to the test, were allowed to access to water. After 4 to 5 hours, a drug was administered to the animals. After a definite treatment period, the test was initiated. The shocked number means the number of electric shocks applied to the rats within 5 minutes after initially allowing them to access to water. […] That is, an increase in the shocked number means that the antianxiety activity is increased.

A short description of series [4]: subacute toxicity, oral administration for 35 days. As to conditions: rat, in vivo. As to the method: (§3) Subacute toxicities of N-(2-aminoethyl)benzo[b]thieno-[2,3-c]pyridine-3-carboamide (A-6) and N-cyclohexyl-1,2,3,4-tetrahydrobenzo[b]thieno[2,3-c]pyridine-3-carboamide (A-9) were tested by orally administering these compounds to Wistar rats for 35 days. The test was conducted in the following manner.
(§4) Each compound was compulsory orally administered to Wistar SPF rats once a day between 9.00 a.m. to 11:30 a.m. by using a 2 ml or 5 ml disposable syringe and a rat gastric sound for 35 days continuously. Syringes were exchanged for each dose and for each compound. The administration period was determined by referring the initial day of the administration as to 0 day.

Series [5] relates to Wistar rats. The series can be described thus: subacute toxicity, oral administration for 35 days. The conditions noted are these: rat, in vivo. As to the method: as §3, §4
Where [6] appears, read: 60 mg/kg orally, 40 minutes after administration, observation period 6 minutes, water at 25 °C.

The values below come from patent EP0386258A1, “TETRAHYDROPYRIDINE DERIVATIVES” (Asahi Kasei Kabushiki Kaisha, priority 1988, dated 1990).

Structures can show the parent of a compound that is named as a salt.

For the compound `CCOC(=O)C1Cc2c(sc3ccccc23)CN1` (centres unmarked) [Compound A-2, l,2,3,4-tetrahydrobenzo[b]thieno[2,3-c]pyridine-3-carboxylic acid ethyl ester], the “Numbers of Rotations of Wheel” value in series [1] (setting [6]) was 26.5±2.9.
As to `CCOC(=O)c1cc2c(cn1)[nH]c1ccccc12` [β-CCE, β-carboline-3-carboxylic acid ethyl ester], the “Latent Time” value in series [2] (40 mg/kg P.O.) was 312±38.2. Moreover, in series [3] (40 mg/kg P.O.), the “Shocked Number” value came to 82.9±20.0. In series [1] (10 mg/kg subcutaneously, examination 15 minutes thereafter), the “Numbers of Rotations of Wheel” value amounted to 23.6±4.1.
In the case of `CCNC(=O)C1Cc2c(sc3ccccc23)CN1` (centres unmarked) [Compound A-7, N-ethyl-1,2,3,4-tetrahydrobenzo[b]thieno(2,3-c]pyridine-3-carboamide], the “Latent Time” value in series [2] (40 mg/kg P.O.) amounted to 232±34.7. The “Shocked Number” value in series [3] (40 mg/kg P.O.) is listed as 127.1±31.5. Besides, the “Numbers of Rotations of Wheel” value in series [1] (setting [6]) amounted to 19.3±8.1.
For `CCCCCCNC(=O)C1Cc2c(sc3ccccc23)CN1` (centres unmarked) [Compound A-8, N-hexyl-1,2,3,4-tetrahydrobenzo[b]-thieno[2,3-c]pyridine-3-carboamide], in that order: 249±36.6, 111.8±28.6 and 20.9±7.6.
Regarding `O=C(c1cc2c(cn1)sc1ccccc12)N1CCCCC1` [Compound A-4, 1-(benzo[b]thieno[2,3-c]pyridine-3-carbonyl)piperidine], the “Numbers of Rotations of Wheel” value in series [1] (setting [6]) is on record as 24.7±3.9.
Consider `CCOC(=O)c1cc2c(cn1)sc1ccccc12` [Compound A-1, benzo[b]thieno[2,3-c]pyridine-3-carboxylic acid ethyl ester], for which the “Latent Time” value in series [2] (40 mg/kg P.O.) is recorded as 132±29.9. Also, the “Shocked Number” value in series [3] (40 mg/kg P.O.) is 117.1±25.7. In addition, in series [1] (setting [6]), the “Numbers of Rotations of Wheel” value stood at 23.4±6.8.
As to `O=C(c1cc2c(cn1)sc1ccccc12)N1CCOCC1` [Compound A-5, 4-(benzo[b]thieno[2,3-c]pyridine-3-carbonyl)morpholine], in series [1] (setting [6]), the “Numbers of Rotations of Wheel” value is reported as 21.3±4.0.
On to `O=C(NC1CCCCC1)C1Cc2c(sc3ccccc23)CN1` (centres unmarked) [Compound A-9, N-cyclohexyl-1,2,3,4-tetrahydrobenzo[b]thieno-[2,3-c]pyridine-3-carboamide hydrochloride], for which the “Latent Time” value in series [2] (30 mg/kg P.O.) amounted to 350±32. Besides, the “Shocked Number” value in series [3] (30 mg/kg P.O.) amounted to 389±41. Also, the NOAEL at 840 h came to 200 mg/kg in series [4] (Safe Dose) and 50 mg/kg in series [4] (Subeffective Dose). Besides, the “Toxic (lethal) Dose” value in series [5] is recorded as 800 mg/kg. For the same compound, in series [1] (setting [6]), the “Numbers of Rotations of Wheel” value came to 37.1±8.0.
Turning to `NCCNC(=O)c1cc2c(cn1)sc1ccccc12` [Compound A-6, N-(2-aminoethyl)benzo[b]thieno[2,3-c]pyridine-3-carboamide], the NOAEL at 840 h in series [4] (Safe Dose) and in series [4] (Subeffective Dose) was 50 mg/kg in each case. Also, in series [5], the “Toxic (lethal) Dose” value stood at 200 mg/kg. Moreover, the “Numbers of Rotations of Wheel” value in series [1] (setting [6]) is 25.4±9.1.
As for `Clc1ccc2sc3c(c2c1)CCNC3` [Compound C-1, 6-chloro-1,2,3,4-tetrahydrobenzo[b]-thieno[2,3-c]pyridine], in series [2] (40 mg/kg P.O.), the “Latent Time” value amounted to 128±19.6. In addition, the “Shocked Number” value in series [3] (40 mg/kg P.O.) was 104.3±28.6. The “Numbers of Rotations of Wheel” value in series [1] (setting [6]) is on record as 24.3±4.3.
`O=C(c1cc2c(cn1)sc1ccccc12)N1CCCNCC1` [Compound A-3, hexahydro-l-(benzo[b]-thieno[2,3-c]pyridine-3-carbonyl)-lH-1,4-diazepine]: the “Numbers of Rotations of Wheel” value in series [1] (setting [6]) worked out at 22.4±6.7.
